In patent US20040115706A1, “High-throughput methods for identifying quadruplex forming nucleic acids and modulators thereof” (priority 2002, published 2004):

Columns and labels:
Type in all cases: binding
[1] = test system: quadruplex nucleic acid QB-1; test: Signal molecule fluorescence assay with quadruplex nucleic acid; conditions: for fluorescent signal / interaction with quadruplex nucleic acid QB-1: 3 μM signal molecule, excitation 420 nm, emission 660 nm, FIG. 2A/2B
Method: (§1) Fifty μl of quadruplex nucleic acid or a nucleic acid not capable of forming a quadruplex were added in 96-well plate. 50 μl of signal molecule was then added for a final concentration of 3 μM. N-methylmesoporphyrin IX (NMM) and meso-tetrakis(N-methyl-4-pyridyl)porphine (TMPyP4) were tested as signal molecules. Fluorescence was measured at an excitation wavelength of 420 nm and an emission wavelength of 660 nm for each of these signal molecules using a FluoStar 2000 fluorometer (BMG Labtechnologies, Durham, N.C.). NMM and TMPyP4 were obtained from Frontier Scientific Inc, Logan, Utah. Fluorescence was plotted as a function of concentration of nucleic acid added to the system at a constant 3 μM concentration of NMM (FIG. 2A) or TMPyP4 (FIG. 2B).

[2] = test system: ds DNA pGL3; test: EB competition with NMM or TMPyP4 for ds DNA; conditions: 6.5 μg/μl pGL3; presence or absence of EB; FIG. 4C
Method: Next, the effect of EB competition with NMM or TMPyP4 for ds DNA was assessed. The assay was carried out as described in the previous paragraph, with 6.5 μg/μl pGL3, and the results were graphically compiled in FIG. 4C.
pGL3 was purchased from Promega, Madison, Wis. pGL3/myc included the nuclease hypersensitive element (NHE) MYC8 fragment from the proximal region of human c-MYC. pGL3/myc was constructed by cloning the MYC8 fragment from human genomic DNA (Promega, Madison, Wis.) and inserting that fragment into the multiple cloning site of the pGL3 vector via Nhe I and Bgl II digestion and ligation. The MYC8 fragment (840 bp) was cloned from human genomic DNA using two primer oligonucleotides. The sense strand primer oligonucleotide for the c-MYC regulatory region had the nucleotide sequence 5′-[…]-3′ (SEQ ID NO: 36; Nhe I site is underlined), which corresponded to site 1993 in the sense strand GenBank sequence. The antisense primer had the nucleotide sequence 5′-[…]-3′ (SEQ ID NO: 37; Bgl II site is underlined), which corresponded to site 2833 in the sense strand GenBank sequence. The Genbank sequence was the Homo sapiens MYC gene, c-myc proto-oncogene and ORF1, Length=10996 (http address: www.ncbi.nlm.nih.gov/entrez/query.fcgi?cmd=Retrieve&db=nucleotide&list_uids=188965&dopt=GenBank). The construct was confirmed by sequencing.

[3] = test system: ss DNA QB-1; test: Specificity of signal molecules for single-stranded DNA; conditions: 3 μM NMM (FIG. 4A) or 3 μM EB (FIG. 4B)
Method: (§2) The specificity of signal molecules NMM and ethidium bromide was assessed with respect to single-stranded (ss) DNA and double-stranded (ds) DNA. Fluorescence was plotted as a function of the concentration of ss DNA QB-1 or ds DNAs pGL3E or pGL3E/myc, under conditions of 3 μM NMM (FIG. 4A) or 3 μM EB (FIG. 4B). Fluorescence of NMM was measured as described in Example 1. Fluorescence of EB was measured at an excitation wavelength of 485 nm and an emission wavelength 590 nm using a FluoStar 2000 fluorometer (BMG Labtechnologies, Durham, N.C.). Ethidium bromide (EB) was obtained from Calbiochem, San Diego, Calif.

[4] = test system: non-quadruplex nucleic acid QB-2; test: Signal molecule fluorescence assay with nucleic acid not capable of forming a quadruplex; conditions: 3 μM signal molecule; excitation 420 nm, emission 660 nm; FIG. 2A/2B
Method: as §1, with “A typical assay was carried out in 100 μl of 20 mM HEPES buffer, pH 7.0, 140 mM NaCl, and 100 mM KCl. Fifty” for “Fifty”

[5] = test system: ds DNAs pGL3E or pGL3E/myc; test: Specificity of signal molecules for double-stranded DNA; conditions: 3 μM NMM (FIG. 4A) or 3 μM EB (FIG. 4B)
Method: as §2
pGL3 was purchased from Promega, Madison, Wis. pGL3/myc included the nuclease hypersensitive element (NHE) MYC8 fragment from the proximal region of human c-MYC. pGL3/myc was constructed by cloning the MYC8 fragment from human genomic DNA (Promega, Madison, Wis.) and inserting that fragment into the multiple cloning site of the pGL3 vector via Nhe I and Bgl II digestion and ligation. The MYC8 fragment (840 bp) was cloned from human genomic DNA using two primer oligonucleotides. The sense strand primer oligonucleotide for the c-MYC regulatory region had the nucleotide sequence 5′-[…]-3′ (SEQ ID NO: 36; Nhe I site is underlined), which corresponded to site 1993 in the sense strand GenBank sequence. […]

[6] = Identification of quadruplex forming nucleic acids by probing with NMM; conditions: for capability of forming a quadruplex structure: 0.1 to 10 μM test nucleic acid probed with 3 μM NMM, FIG. 2C; for interaction with NMM (quadruplex forming profile): 3 μM NMM, FIG. 2E
Method: as §1, with “A typical assay was carried out in 100 μl of 20 mM HEPES buffer, pH 7.0, 140 mM NaCl, and 100 mM KCl. Fifty” for “Fifty”
In this study, several oligonucleotides were analyzed to determine which of them were capable of forming quadruplex structures. The oligonucleotides in Table 2 were synthesized by Applied Biosystems (Foster City, Calif.).
FIG. 2E depicts quadruplex forming profiles for oligonucleotides QB-1 and QB-11 to QB-25.

[7] = test system: quadruplex nucleic acid QB-1; test: Competition of test molecules with NMM for quadruplex nucleic acid QB-1; conditions: QB-1 5 μM, NMM 3 μM; FIG. 3
Method: Test molecules were mixed with the quadruplex nucleic acid QB-1 in a 96-well plate and fluorescence backgrounds were monitored under the conditions specified in Example 1. NMM was then added to wells in the 96-well plate to a final concentration of 3 μM. Fluorescence of NMM was measured at an excitation wavelength of 420 nm and an emission wavelength of 660 nm using a FluoStar 2000 fluorometer (BMG Labtechnologies, Durham, N.C.). Maximum fluorescent signals for NMM were assessed in the absence of the test molecules. Fluorescence was plotted as a function of the concentration of three test molecules with constant concentrations of QB-1 (5 μM) and NMM (3 μM)(FIG. 3). The test compounds were telomestatin, QQ28, and serinodisaphyrin (see, e.g., Shin-ya et al., J. Am. Chem. Soc. 123:1262 (2001); Duan et al., Mol. Cancer Therapeutics 1:103 (2001)).

CCC1=C(C)c2cc3[nH]c(cc4nc(cc5c(CCC(=O)O)c(C)c(cc1n2)n5C)C(CCC(=O)O)=C4C)c(C)c3CC [NMM, N-methylmesoporphyrin IX]
fluorescent signal / interaction with quadruplex nucleic acid QB-1 [1]: interacted with quadruplex nucleic acid QB-1
stabilization of quadruplex structure ([1]; without the addition of potassium ions, FIG. 2A): could stabilize quadruplex structure without the addition of potassium ions
interaction with ds DNA [2]: did not interact with ds DNA
interaction with single-stranded DNA [3]: interacted with ssDNA
fluorescent signal / interaction with non-quadruplex nucleic acid QB-2 [4]: did not interact appreciably
interaction with double-stranded DNA [5]: did not interact appreciably with ds DNA

C[n+]1ccc(-c2c3nc(c(-c4cc[n+](C)cc4)c4ccc([nH]4)c(-c4cc[n+](C)cc4)c4nc(c(-c5cc[n+](C)cc5)c5ccc2[nH]5)C=C4)C=C3)cc1 [TMPyP4, meso-tetrakis(N-methyl-4-pyridyl)porphine]
change of emitted signal with increasing quadruplex nucleic acid concentrations ([1]; 3 μM TMPyP4, FIG. 2B, likely due to quenching): decreased with increasing quadruplex nucleic acid concentrations
fluorescent signal / interaction with quadruplex nucleic acid QB-1 [1]: varied significantly
interaction with ds DNA [2]: did interact with ds DNA
fluorescent signal / interaction with non-quadruplex nucleic acid QB-2 [4]: varied significantly

QB-1: 5′-AGGGTGGGGAGGGTGGGGAA-3′, SEQ ID NO 17, c-MYC (DNA, backbone not given here)
capability of forming a quadruplex structure [6]: capable of forming a quadruplex structure

QB-9: 5′-GGGGTTTTGGGG-3′, SEQ ID NO 19, dimers for quadruplex of basket or crossover structure (DNA, backbone not given here)
capability of forming a quadruplex structure [6]: capable of forming a quadruplex structure

QB-10: 5′-GGTTGGTGTGGTTGG-3′, SEQ ID NO 20, intramolecular edge, or chair structure (DNA, backbone not given here)
capability of forming a quadruplex structure [6]: capable of forming a quadruplex structure

QB-20: 5′-GTGGTGGGTGGGTGGGT-3′, SEQ ID NO 30, T30177 (DNA, backbone not given here)
interaction with NMM (quadruplex forming profile) [6]: interacted most significantly

QB-23: 5′-CGCTTGATGAGTCAGCCGGAA-3′, SEQ ID NO 33, AP-1 (DNA, backbone and methylation of C not given here)
interaction with NMM (quadruplex forming profile) [6]: did not appreciably interact with NMM

QB-25: 5′-CCTTCCCCACCCTCCCCACCCTCCCCA-3′, SEQ ID NO 35, c-MYC (DNA, backbone and methylation of C not given here)
interaction with NMM (quadruplex forming profile) [6]: did not appreciably interact with NMM

serinodisaphyrin
affinity of interaction with the quadruplex DNA (competition with NMM) [7]: intermediate affinity
identification as quadruplex interacting molecule [7]: identified as quadruplex interacting molecules
